Bounds are passed on as bounds.

The assay concerns the target T1, PDE1A (Homo sapiens, UniProt P54750).
T1 construct: purchased SignalChem
The experiment in a line: In vitro detection of phosphodiesterase (PDE): PDE1A enzyme activity by fluorescence polarization immunoassay. It counts as biochemical. As to conditions: human-derived enzyme, cAMP or cGMP substrate; read-out: IC50s for PDE1. As to the method:
Test 1: In Vitro Detection of Phosphodiesterase (PDE)
the enzyme activity of PDE1A was determined by detecting the production of AMP/GMP by fluorescence polarization immunoassay, wherein AlexaFluor 633 labeled AMP/GMP was used to replace AMP/GMP to bind with the antibody.
Reaction buffer: 10 mM Tris-HCl, pH 7.5, 5 mM magnesium chloride, 0.01% Brij 35, 1 mM DTT and 1% DMSO;
Enzyme substrate: […] cAMP or cGMP (Ca^2+-calmodulin acts as a cofactor of PDE1A)
Detection reagent: Transcreener® AMP2/GMP2 antibody; AMP2/GMP2 AlexaFluor 633 tracer.
Experimental Procedure and Method:
1. Human-derived enzyme (commercially available from SignalChem) to be tested and substrate were diluted with freshly prepared reaction buffer;
2. The enzyme solution (with a concentration of 3 pM) was added to the holes of the microplates;
3. A series of solutions of the compounds in 100% DMSO (with the desired concentrations) were added to the holes containing the enzyme solution by Echo550, and then the microplates were incubated for 10 minutes at room temperature;
4. The substrate solution was added to the holes containing the enzyme and compounds to start the reaction;
5. The microplates were incubated for 1 hour under room temperature and vibration;
6. The detection mixture (tracer and antibody in stop buffer) was added to stop the enzyme reaction, and the microplates were incubated for 90 minutes under vibration;
7. The equipment EnVision (PerkinElmer), Cy5 FP Ex FP 620, Em S-pol 688/P-pol 688, FP mirror D658fp/D688 was used to detect the reaction mixture, and Ex/Em 620/688 was used to detect the fluorescence polarization.
In the Excel table, the enzyme activity corresponding to the FP signal was found on the AMP/GMP standard curve by reference to the DMSO negative control, and then was converted to product concentration (nM). GraphPad Prism was used to analyze and calculate the IC50 values.
(Polarisation of emitted light reports the rotation of a fluorescent probe.)

Regarding `CC[C@@]12C=C(c3nccc(C)n3)n3c4c(c5ccccc53)CCN(CCC1)[C@H]42` [Example 8, (4^1S,13aS)-13a-ethyl-12-(4-methylpyrimidin-2-yl)-2,3,4^1,5,6,13a-hexahydro-1H-indolo[3,2,1-de]pyrido[3,2,1-ij][1,5]naphthyridine], the IC50 was 20 to 100 µM.

Consider `CC[C@@]12C=C(c3nc(C)no3)n3c4c(c5cc(S(=O)(=O)N(C)C)ccc53)CCN(CCC1)[C@H]42` [Example 80, (4^1S,13aS)-13a-ethyl-N,N-dimethyl-12-(3-methyl-1,2,4-oxadiazol-5-yl)-2,3,4^1,5,6,13a-hexahydro-1H-indolo[3,2,1-de]pyrido[3,2,1-ij][1,5]naphthyridin-8-sulfonamide], for which the IC50 fell in the range of 20 to 100 µM.

With `CC[C@@]12C=C(c3nc(C)c(C4CC4)o3)n3c4c(c5ccccc53)CCN(CCC1)[C@H]42` [Example 58, 5-cyclopropyl-2-((4^1S,13aS)-13a-ethyl-2,3,4^1,5,6,13a-hexahydro-1H-indolo[3,2,1-de]pyrido[3,2,1-ij][1,5]naphthyridin-12-yl)-4-methyloxazole], the IC50 is at most 1 µM.

For `CC[C@@]12C=C(c3ccno3)n3c4c(c5ccccc53)CCN(CCC1)[C@H]42` [Example 45, 5-((4^1S,13aS)-13a-ethyl-2,3,4^1,5,6,13a-hexahydro-1H-indolo[3,2,1-de]pyrido[3,2,1-ij][1,5]naphthyridin-12-yl)isoxazole], the IC50 is 20 to 100 µM.

For `CCc1noc(C2=C[C@]3(CC)CCCN4CCc5c(n2c2ccccc52)[C@@H]43)n1` [Example 33, 3-ethyl-5-((4^1S,13aS)-13a-ethyl-2,3,4^1,5,6,13a-hexahydro-1H-indolo[3,2,1-de]pyrido[3,2,1-ij][1,5]naphthyridin-12-yl)-1,2,4-oxadiazole], the IC50 lay in the range of 1 to 20 µM.

`CC[C@@]12C=C(c3cnc(C)c(C)n3)n3c4c(c5ccccc53)CCN(CCC1)[C@H]42` [Example 14, (4^1S,13aS)-12-(5,6-dimethylpyrazin-2-yl)-13a-ethyl-2,3,4^1,5,6,13a-hexahydro-1H-indolo[3,2,1-de]pyrido[3,2,1-ij][1,5]naphthyridine]: the IC50 lay in the range of 1 to 20 µM.

As for `CC[C@@]12C=C(c3cnco3)n3c4c(c5ccccc53)CCN(CCC1)[C@H]42` [Example 4, 5-((4^1S,13aS)-13a-ethyl-2,3,4^1,5,6,13a-hexahydro-1H-indolo[3,2,1-de]pyrido[3,2,1-ij][1,5]naphthyridin-12-yl)oxazole], the IC50 was 20 to 100 µM.

For `CC[C@@]12C=C(c3nc(C)c(C#N)o3)n3c4c(c5ccccc53)CCN(CCC1)[C@H]42` [Example 63, 2-((4^1S,13aS)-13a-ethyl-2,3,4^1,5,6,13a-hexahydro-1H-indolo[3,2,1-de]pyrido[3,2,1-ij][1,5]naphthyridin-12-yl)-4-methyloxazole-5-carbonitrile], the IC50 was at most 1 µM.

Regarding `CC[C@@]12C=C(c3noc(-c4ccncc4)n3)n3c4c(c5ccccc53)CCN(CCC1)[C@H]42` [Example 24, 3-((4^1S,13aS)-13a-ethyl-2,3,4^1,5,6,13a-hexahydro-1H-indolo[3,2,1-de]pyrido[3,2,1-ij][1,5]naphthyridin-12-yl)-5-(pyridin-4-yl)-1,2,4-oxadiazole], the IC50 fell in the range of 20 to 100 µM.

In the case of `CC[C@@]12C=C(c3nc4c(o3)CCCC4)n3c4c(c5ccccc53)CCN(CCC1)[C@H]42` [Example 55, 2-((4^1S,13aS)-13a-ethyl-2,3,4^1,5,6,13a-hexahydro-1H-indolo[3,2,1-de]pyrido[3,2,1-ij][1,5]naphthyridin-12-yl)-4,5,6,7-tetrahydrobenzo[d]oxazole], the IC50 was at most 1 µM.

With `CC[C@@]12C=C(c3nc(C)c(C(=O)N(C)C)o3)n3c4c(c5ccccc53)CCN(CCC1)[C@H]42` [Example 65, 2-((4^1S,13aS)-13a-ethyl-2,3,4^1,5,6,13a-hexahydro-1H-indolo[3,2,1-de]pyrido[3,2,1-ij][1,5]naphthyridin-12-yl)-N,N,4-trimethyloxazole-5-carboxamide], the IC50 was at most 1 µM.
